# Test results as given in patent US8158625B2, “Bicyclic indole-pyrimidine PI3K inhibitor compounds selective for P110 delta, and methods of use” (Genentech, Inc., priority 2009, dated 2012).
# pIC50: −log10 of the molar value.
# What was measured:
# [1] = tested on: production of CD69 by B lymphocytes in human whole blood activated with goat F(ab')2 anti-human IgM; test: CD69 Whole Blood Assay; type: cell-based; settings: Lymphocyte, anti-IgM stimulated, CD69 positive of CD20 positive cells, 20 hours
# Text: There is good evidence that B-cells play a key role in the pathogenesis of autoimmune and/or inflammatory disease. Protein-based therapeutics that deplete B cells such as Rituxan are effective against autoantibody-driven inflammatory diseases such as rheumatoid arthritis (Rastetter et al. (2004) Annu Rev Med 55:477). CD69 is the early activation marker in leukocytes including T cells, thymocytes, B cells, NK cells, neutrophils, and eosinophils. The CD69 human whole blood assay (Example 903) determines the ability of compounds to inhibit the production of CD69 by B lymphocytes in human whole blood activated by crosslinking surface IgM with goat F(ab′)2 anti-human IgM.
# Human blood is obtained from healthy volunteers, with the following restrictions: 1 week drug-free, non-smokers. Blood (approximately 20 mls to test 8 compounds) is collected by venipuncture into Vacutainer tubes with sodium heparin.
# Solutions of Formula I compounds at 1000 or 2000 μM in PBS (20×), are diluted by three-fold serial dilutions in 10% DMSO in PBS for a nine point dose-response curve. An aliquot of 5.5 μl of each compound is added in duplicate to a 2 ml 96-well plate; 5.5 μl of 10% DMSO in PBS is added as control and no-stimulus wells. Human whole blood-HWB (100 μl) is added to each well. After mixing the plates are incubated at 37° C., 5% CO2, 100% humidity for 30 minutes. Goat F(ab′)2 anti-human IgM (10 μl of a 500 μg/ml solution, 50 μg/ml final) is added to each well (except the no-stimulus wells) with mixing and the plates are incubated for an additional 20 hours. At the end of the 20 hour incubation, samples are incubated with florescent labeled antibodies for 30 minutes, at 37° C., 5% CO2, 100% humidity. Include induced control, unstained and single stains for compensation adjustments and initial voltage settings. Samples are then lysed with Pharmingen Lyse according to the manufacturer's instructions. Samples are then transferred to a 96 well plate suitable to be run on the AMS 96 well system on the BD Calibur FACs machine. Data acquired and Mean Fluorescence Intensity values were obtained using Cell Quest Software. Results are initially analyzed by FACS analysis software (Flow Jo). […] The IC50 values are calculated by ActivityBase using Xlfit version 3, equation 201.
# p110 alpha = target: T1, p110 alpha (Homo sapiens, UniProt P42336); test: PI3K isoform inhibition assay (fluorescence polarization), p110 alpha, used for delta/alpha selectivity; settings: ratio of biochemical IC50 values
# T1 construct: purchased Upstate Group, Millipore; Dundee, UK
# T1 sequence (P42336 whole entry, canonical isoform): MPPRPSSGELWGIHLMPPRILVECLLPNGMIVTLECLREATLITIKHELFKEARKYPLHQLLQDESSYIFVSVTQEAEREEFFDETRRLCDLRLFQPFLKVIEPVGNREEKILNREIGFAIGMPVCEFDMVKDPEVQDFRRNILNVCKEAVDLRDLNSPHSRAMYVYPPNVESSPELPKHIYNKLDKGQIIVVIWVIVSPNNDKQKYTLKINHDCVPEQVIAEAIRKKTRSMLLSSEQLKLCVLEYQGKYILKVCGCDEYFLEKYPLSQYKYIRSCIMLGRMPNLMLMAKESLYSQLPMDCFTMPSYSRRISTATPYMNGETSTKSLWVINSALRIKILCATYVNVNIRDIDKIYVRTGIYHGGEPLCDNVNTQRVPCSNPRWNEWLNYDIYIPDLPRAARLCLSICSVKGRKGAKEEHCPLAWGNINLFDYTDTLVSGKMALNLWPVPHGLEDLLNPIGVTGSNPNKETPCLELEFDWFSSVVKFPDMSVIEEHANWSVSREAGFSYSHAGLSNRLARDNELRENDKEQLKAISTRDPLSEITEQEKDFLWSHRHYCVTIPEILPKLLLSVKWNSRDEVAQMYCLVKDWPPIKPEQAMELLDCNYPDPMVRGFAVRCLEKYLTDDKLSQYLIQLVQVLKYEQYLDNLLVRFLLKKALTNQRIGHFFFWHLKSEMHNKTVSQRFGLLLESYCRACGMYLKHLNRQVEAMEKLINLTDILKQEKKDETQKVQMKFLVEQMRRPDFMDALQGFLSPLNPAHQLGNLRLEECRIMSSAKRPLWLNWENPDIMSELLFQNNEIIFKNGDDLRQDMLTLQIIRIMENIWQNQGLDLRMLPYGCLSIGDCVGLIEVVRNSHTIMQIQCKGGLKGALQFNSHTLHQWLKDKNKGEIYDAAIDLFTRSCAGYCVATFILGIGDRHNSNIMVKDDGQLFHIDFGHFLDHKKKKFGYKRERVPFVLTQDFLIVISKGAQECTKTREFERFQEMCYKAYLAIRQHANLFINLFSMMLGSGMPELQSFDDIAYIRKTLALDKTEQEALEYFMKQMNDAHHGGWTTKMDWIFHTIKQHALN
# T1 sequence (P27986 whole entry partner, canonical isoform): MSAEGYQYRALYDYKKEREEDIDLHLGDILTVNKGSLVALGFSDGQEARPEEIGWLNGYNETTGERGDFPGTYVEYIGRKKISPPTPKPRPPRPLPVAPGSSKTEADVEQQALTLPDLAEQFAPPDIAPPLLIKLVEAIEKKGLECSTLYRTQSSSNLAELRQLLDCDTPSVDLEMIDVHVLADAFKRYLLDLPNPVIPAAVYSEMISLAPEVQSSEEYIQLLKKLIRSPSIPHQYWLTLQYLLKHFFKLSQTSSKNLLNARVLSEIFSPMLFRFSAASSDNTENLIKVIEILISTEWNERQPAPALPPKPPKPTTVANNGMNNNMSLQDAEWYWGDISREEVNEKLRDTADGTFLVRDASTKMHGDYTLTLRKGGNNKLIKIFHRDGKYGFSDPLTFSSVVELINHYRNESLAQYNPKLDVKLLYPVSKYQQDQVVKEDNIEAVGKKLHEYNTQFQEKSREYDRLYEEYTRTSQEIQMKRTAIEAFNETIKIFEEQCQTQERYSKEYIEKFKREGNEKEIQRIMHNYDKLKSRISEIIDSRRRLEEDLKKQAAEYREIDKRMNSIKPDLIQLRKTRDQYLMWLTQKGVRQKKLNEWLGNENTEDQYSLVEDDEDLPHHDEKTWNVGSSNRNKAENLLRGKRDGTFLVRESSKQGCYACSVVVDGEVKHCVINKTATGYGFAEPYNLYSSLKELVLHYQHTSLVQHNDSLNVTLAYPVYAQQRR
# Procedure: (§1) PI3K enzymatic activity was assayed by measuring the amount of product phosphatidylinositol 3,4,5-phosphate (PIP3) formed from substrate 4,5 phosphatidylinositol 4,5-phosphate (PIP2) using a fluorescence polarization displacement assay. The decrease in fluorescence polarization of a fluorescent PIP3 probe is measured as it is displaced from a PIP3-binding protein GRP-1 detector by PI3K-catalyzed product. Assays were conducted in 384-well black Proxiplates in the presence of 10 mM Tris (pH 7.5), 50 mM NaCl, 4 mM MgCl2, 5% glycerol, 25 μM ATP, 10 μM PIP2 (Echelon Biosciences), 0.05% 3-[(3-cholamidopropyl)dimethylammonio]-1-propanesulfonate, 1 mM dithiothreitol, and 2% DMSO. The kinase reactions were initiated by the addition of 40 ng/mL p110α/p85α, 300 ng/mL p110β/p85α, 40 ng/mL p110γ, or 40 ng/mL p110δ/p85α (Upstate Group, Millipore; Dundee, UK), and 10 μM PIP2 (Echelon Biosciences) to the wells. The reactions were stopped at timepoints that yielded a fixed change in fluorescence polarization consistent with initial rate conditions (typically 30 minutes), by the addition of 12.5 mM EDTA, 100 nM GRP-1 detector, and 5 nM tetramethylrhodamine-labeled PIP3 (TAMRA-PIP3; Echelon Biosciences). After 60 minutes of incubation at room temperature to allow equilibration of labeled and unlabeled PIP3 binding, the parallel and perpendicular components of the fluorescence emissions from each sample were measured at an excitation wavelength of 530 nm and an emission wavelength of 590 nm using an Envision fluorescent plate reader with a rhodamine filter (PerkinElmer Life and Analytical Sciences; Wellesley, Mass.). The assay is capable of detecting 0.1-2.0 μM PIP3 product. The IC50 values were obtained by fitting the dose-dependent inhibition data to a 4-parameter equation using Assay Explorer software (MDL, San Ramon, Calif.). […]
# The same protocol was used to establish IC50 values for p110α (alpha) PI3K binding. […]
# p110 delta = target: T2, p110 delta (Homo sapiens, UniProt O00329); test: PI3K isoform inhibition assay (fluorescence polarization), p110 delta; type: biochemical; settings: p110 delta binding IC50, Example 901
# T2 construct: purchased Upstate Group, Millipore; Dundee, UK
# T2 sequence (O00329 whole entry, canonical isoform): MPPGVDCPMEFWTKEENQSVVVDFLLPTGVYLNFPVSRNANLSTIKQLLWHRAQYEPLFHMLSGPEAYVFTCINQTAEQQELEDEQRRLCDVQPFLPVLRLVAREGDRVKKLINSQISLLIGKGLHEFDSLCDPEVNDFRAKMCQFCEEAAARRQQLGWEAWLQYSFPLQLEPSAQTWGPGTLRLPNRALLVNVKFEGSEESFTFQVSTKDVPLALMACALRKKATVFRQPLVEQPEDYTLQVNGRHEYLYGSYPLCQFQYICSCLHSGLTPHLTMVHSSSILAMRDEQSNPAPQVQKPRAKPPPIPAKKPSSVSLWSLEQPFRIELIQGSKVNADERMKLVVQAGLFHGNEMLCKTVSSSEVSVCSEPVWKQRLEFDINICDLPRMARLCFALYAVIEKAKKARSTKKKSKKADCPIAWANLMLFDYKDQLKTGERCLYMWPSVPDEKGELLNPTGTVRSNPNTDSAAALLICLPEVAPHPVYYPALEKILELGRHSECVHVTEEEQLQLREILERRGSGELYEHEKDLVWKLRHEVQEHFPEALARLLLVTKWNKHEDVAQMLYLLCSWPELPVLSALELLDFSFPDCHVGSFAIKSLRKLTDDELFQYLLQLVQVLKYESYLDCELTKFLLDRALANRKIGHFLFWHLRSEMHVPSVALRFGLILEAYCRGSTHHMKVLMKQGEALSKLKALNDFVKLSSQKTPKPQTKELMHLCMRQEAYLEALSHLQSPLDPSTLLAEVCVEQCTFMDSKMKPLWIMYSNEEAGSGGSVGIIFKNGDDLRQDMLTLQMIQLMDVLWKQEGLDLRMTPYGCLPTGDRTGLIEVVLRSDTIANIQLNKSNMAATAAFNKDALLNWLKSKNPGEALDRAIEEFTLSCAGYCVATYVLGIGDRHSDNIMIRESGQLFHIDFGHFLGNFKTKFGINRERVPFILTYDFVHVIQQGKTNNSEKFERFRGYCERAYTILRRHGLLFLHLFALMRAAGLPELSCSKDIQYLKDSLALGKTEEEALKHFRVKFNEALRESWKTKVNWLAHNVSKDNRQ
# T2 sequence (P27986 whole entry partner, canonical isoform): as the sequence (P27986 whole entry partner, canonical isoform) above
# Procedure: as §1
# Recombinant PI3K p110 isoforms alpha, beta, and delta may be prepared and purified according to US 2008/0275067 from recombinant PI3K heterodimeric complexes consisting of a p110 catalytic subunit and a p85 regulatory subunit overexpressed using the BAC-TO-BAC® HT baculovirus expression system (GIBCO/BRL), and then purified for use in biochemical assays. The four Class I PI 3-kinases are cloned into baculovirus vectors as follows:
# p110 delta: A FLAG™-tagged (Eastman Kodak Co., U.S. Pat. No. 4,703,004; U.S. Pat. No. 4,782,137; U.S. Pat. No. 4,851,341) version of human p110.delta (Chantry et al., J. Biol. Chem. (1997) 272:19236-41) is subcloned using standard recombinant DNA techniques into the BamH1-Xba1 site of the insect cell expression vector pFastbac HTb (Life Technologies, Gaithersburg, Md.), such that the clone is in frame with the His tag of the vector.
Structure (SMILES),pIC50 [1],IC50 p110 alpha/IC50 p110 delta (p110 alpha),pIC50 (p110 delta)
"CN(C)C1CCN(Cc2cc3nc(-c4c[nH]c5ccccc45)nc(N4CCOCC4)c3s2)CC1 [Compound 101, 1-((2-(1H-indol-3-yl)-4-morpholinothieno[3,2-d]pyrimidin-6-yl)methyl)-N,N-dimethylpiperidin-4-amine]",7.76,101,
"CN(C)C1CCN(Cc2cc3nc(N4CCc5ccccc54)nc(N4CCOCC4)c3s2)CC1 [Compound 102, 1-((2-(indolin-1-yl)-4-morpholinothieno[3,2-d]pyrimidin-6-yl)methyl)-N,N-dimethylpiperidin-4-amine]",5.77,34,7.68
"CN(C)C1CCN(Cc2cc3nc(-n4ccc5ccccc54)nc(N4CCOCC4)c3s2)CC1 [Compound 103, 1-((2-(1H-indol-1-yl)-4-morpholinothieno[3,2-d]pyrimidin-6-yl)methyl)-N,N-dimethylpiperidin-4-amine]",,54,7.98
"Cn1c(CN2CCC(N3CCOCC3)CC2)nc2c(N3CCOCC3)nc(-c3c[nH]c4ccccc34)nc21 [Compound 104, 4-(1-((2-(1H-indol-3-yl)-9-methyl-6-morpholino-9H-purin-8-yl)methyl)piperidin-4-yl)morpholine]",6.21,105,7.32
"CN(C)C1CCN(Cc2cc3nc(-c4c[nH]c5ccc(F)cc45)nc(N4CCOCC4)c3s2)CC1 [Compound 113, 1-((2-(5-fluoro-1H-indol-3-yl)-4-morpholinothieno[3,2-d]pyrimidin-6-yl)methyl)-N,N-dimethylpiperidin-4-amine]",,13,6.99
"O=C1COC2(CCN(Cc3cc4nc(-c5c[nH]c6ccccc56)nc(N5CCOCC5)c4s3)CC2)CN1 [Compound 116, 9-((2-(1H-indol-3-yl)-4-morpholinothieno[3,2-d]pyrimidin-6-yl)methyl)-1-oxa-4,9-diazaspiro[5.5]undecan-3-one]",,25,7.26
"c1ccc2c(-c3nc(N4CCOCC4)c4nc(CN5CC(N6CCOCC6)C5)sc4n3)c[nH]c2c1 [Compound 117, 4-(5-(1H-indol-3-yl)-2-((3-morpholinoazetidin-1-yl)methyl)thiazolo[5,4-d]pyrimidin-7-yl)morpholine]",7.08,198,8.70
"Cc1cc2cc(F)ccc2n1-c1nc(N2CCOCC2)c2sc(CN3CCC(N(C)C)CC3)cc2n1 [Compound 119, 1-((2-(5-fluoro-2-methyl-1H-indol-1-yl)-4-morpholinothieno[3,2-d]pyrimidin-6-yl)methyl)-N,N-dimethylpiperidin-4-amine]",6.02,68,7.63
"CN(C)[C@@H]1CCN(Cc2nc3c(N4CCOCC4)nc(-c4c[nH]c5ccccc45)nc3n2C)C[C@@H]1F [Compound 122, (3S,4R)-1-((2-(1H-indol-3-yl)-9-methyl-6-morpholino-9H-purin-8-yl)methyl)-3-fluoro-N,N-dimethylpiperidin-4-amine]",6.73,96,8.12
"Cn1c(CN2CCC(C(C)(C)O)CC2)nc2c(N3CCOCC3)nc(-c3c[nH]c4cc(F)ccc34)nc21 [Compound 124, 2-(1-((2-(6-fluoro-1H-indol-3-yl)-9-methyl-6-morpholino-9H-purin-8-yl)methyl)piperidin-4-yl)propan-2-ol]",,>160,6.21
CC(C)(OCCN1CCCC1)c1cc2nc(-c3c[nH]c4ccccc34)nc(N3CCOCC3)c2s1 [Compound 125],,63,8.08
"COCc1cc2ccccc2n1-c1nc(N2CCOCC2)c2nc(CN3CCC(C(C)(C)O)CC3)n(C)c2n1 [Compound 127, 2-(1-((2-(2-(methoxymethyl)-1H-indol-1-yl)-9-methyl-6-morpholino-9H-purin-8-yl)methyl)piperidin-4-yl)propan-2-ol]",6.05,186,7.54
"CC(C)(C(N)=O)N1CCN(Cc2cc3nc(-c4c(C#N)[nH]c5ccccc45)nc(N4CCOCC4)c3s2)CC1 [Compound 129, 2-(4-((2-(2-cyano-1H-indol-3-yl)-4-morpholinothieno[3,2-d]pyrimidin-6-yl)methyl)piperazin-1-yl)-2-methylpropanamide]",,238,8.47
"CN(C)C1CCN(Cc2cc3nc(-n4ccc5cc(O)ccc54)nc(N4CCOCC4)c3s2)CC1 [Compound 132, 1-(6-((4-(dimethylamino)piperidin-1-yl)methyl)-4-morpholinothieno[3,2-d]pyrimidin-2-yl)-1H-indol-5-ol]",,37,7.66
"Cn1c(CN2CCC(C(C)(C)O)CC2)nc2c(N3CCOCC3)nc(-n3c(C#N)cc4ccccc43)nc21 [Compound 136, 1-(8-((4-(2-hydroxypropan-2-yl)piperidin-1-yl)methyl)-9-methyl-6-morpholino-9H-purin-2-yl)-1H-indole-2-carbonitrile]",5.34,265,7.70
